# From patent publication US9969766B2, “20(R)-ginsenoside Rg3 polyacylated derivatives, preparation and application thereof” (priority 2014, dated 2018)
# Columns and labels:
# [1] = cited from earlier work
# [2] = Solubility of the isolated products; type: physicochemical
# mouse Lewis lung cancer [3] = experiment: Mouse Lewis lung cancer, toe subcutaneous inoculation, anti-tumor test; conditions: 100 mg/kg/d, ip × 14qod
# Source text: (§1) human breast cancer Bcap-37 model, human lung cancer A549 model, human intestinal cancer LOVO model, human stomach cancer MGC model and human liver cancer QGY model, with tumor cell lines being of the second generation or more, mouse B16 melanoma cell line, mouse Lewis lung cancer model, mouse sarcoma s180 model, all passaged and preserved in Pharmacological Division of Shanghai Institute of Pharmaceutical Industry. 3. Experiment Animals Origins: nude mice, 6-week old, 18-22 g/mouse, provided by Laboratory Animal Center of Chinese Academy of Sciences, Shanghai Branch, with certification No. 2001A032. C57BL/6 mice and Kunming mice, 18-22 g/mouse, provided by Laboratory Animal Center of Chinese Academy of Sciences, Shanghai Branch, with certification SYXK (Shanghai) 2004-0015. Gender: male or female, the same gender for each batch in experiment Animal numbers: 10 mice and 10 nude mice for each of positive control group and test group in experiment, and 20 for negative control group. 4. Experiment Design Dose Settings: doses for 20(R)-ginsenoside Rg3 octo-acetate, 20(R)-ginsenoside Rg3 octo-n-butyrate and 20(R)-ginsenoside Rg3 octo-n-propionate were set as high-dose group (0.3 mg/kg/d), medium-dose group (0.06 mg/kg/d), and low-dose group (0.012 mg/kg/d). Dosage regimen: oral administration, twice daily. human tumor model and cell-inoculated mouse model: po×14 bid; mouse tumor-inoculated model: po×10 bid. Control Trial: negative control group: given with the same volume of 5% CMC-Na as the test group, and the same dosage regimen as the test group. positive control group: Cyclophosphamide CTX 30 mg/kg, […] 5. Experiment Method and Key Steps 5.1 Anti-Tumor Test 5.1.1 Subcutaneous Inoculation Model
# (§2) Tumor cells of vigorous growth stage were taken under sterile condition and made into cell suspensions of about 1-2×10^7/ml by homogenization, the suspensions were inoculated subcutaneously at 0.2 ml/mouse in host mice and repeated on the next day according to the experiment design, the animals in each group were slaughtered after about three weeks, the tumors were collected and weighed, and the tumor inhibition rates were calculated according to the following equation: tumor inhibition rate %=[(average tumor weight of control group-average tumor weight of treatment group)/average tumor weight of control group]×100%
# [4] = tested on: human breast cancer Bcap-37 cells; experiment: Human breast cancer Bcap-37 subcutaneous inoculation in nude mice; conditions: 100 mg/kg/d, ip × 2qod
# Source text: as §1, with “group:” for “group: Cyclophosphamide CTX 30 mg/kg,”
# as §2
# The same operation was repeated in human tumor xenograft model, except that the feed, packing, cage and contact instruments were all sterilized under high pressure before use and the nude mice were fed in a laminar flow rack. The tumors and tumor-bearing animal weight gains were dynamically measured (tumor size measured using caliper: long diameter/a, short diameter/b, and tumor bulk=a×b^2/2).
# mouse melanoma B16 cells = experiment: Mouse melanoma B16 tail vein inoculation, lung metastasis; conditions: 100 mg/kg/d, ip × 2qod
# Source text: (§3) human breast cancer Bcap-37 model, human lung cancer A549 model, human intestinal cancer LOVO model, human stomach cancer MGC model and human liver cancer QGY model, with tumor cell lines being of the second generation or more, mouse B16 melanoma cell line, mouse Lewis lung cancer model, mouse sarcoma s180 model, all passaged and preserved in Pharmacological Division of Shanghai Institute of Pharmaceutical Industry. 3. Experiment Animals Origins: nude mice, 6-week old, 18-22 g/mouse, provided by Laboratory Animal Center of Chinese Academy of Sciences, Shanghai Branch, with certification No. 2001A032. C57BL/6 mice and Kunming mice, 18-22 g/mouse, provided by Laboratory Animal Center of Chinese Academy of Sciences, Shanghai Branch, with certification SYXK (Shanghai) 2004-0015. Gender: male or female, the same gender for each batch in experiment Animal numbers: 10 mice and 10 nude mice for each of positive control group and test group in experiment, and 20 for negative control group. 4. Experiment Design Dose Settings: doses for 20(R)-ginsenoside Rg3 octo-acetate, 20(R)-ginsenoside Rg3 octo-n-butyrate and 20(R)-ginsenoside Rg3 octo-n-propionate were set as high-dose group (0.3 mg/kg/d), medium-dose group (0.06 mg/kg/d), and low-dose group (0.012 mg/kg/d). Dosage regimen: oral administration, twice daily. human tumor model and cell-inoculated mouse model: po×14 bid; mouse tumor-inoculated model: po×10 bid. Control Trial: negative control group: given with the same volume of 5% CMC-Na as the test group, and the same dosage regimen as the test group. positive control group: Cyclophosphamide CTX 30 mg/kg, MMC 2 mg/kg and 5Fu 30 mg/kg by intraperitoneal or intravenous administration, once daily, for seven consecutive days. 5. Experiment Method and Key Steps 5.1 Anti-Tumor Test 5.1.1 Subcutaneous Inoculation Model
# mouse sarcoma S180 cells = experiment: Mouse sarcoma S180 metastasis model; conditions: 100 mg/kg/d, ip × 2qod
# Source text: as §3
# mouse Lewis lung cancer [5] = experiment: Mouse Lewis lung cancer (subcutaneous inoculation) metastasis model; conditions: 100 mg/kg/d, ip × 2qod
# Source text: as §3, §2
# [6] = tested on: human stomach cancer MGC cells; experiment: Human stomach cancer MGC in-situ inoculation, survival; conditions: 100 mg/kg/d, ip × 2qod
# Source text: as §3
# [7] = tested on: human intestinal cancer LOVO cells; conditions: 100 mg/kg/d, ip × 2qod
# Source text: as §1
# LOVO intestinal cancer cells (cultured in vitro) of logarithmic growth stage were taken under sterile condition and prepared into cell suspensions of about 1.8×10^7/ml using RPMI1640 culture medium as diluent. The nude mice were subjected to general anesthesia and cut in belly after routine disinfection to belly skin, the spleens were taken out and inoculated with LOVO intestinal cancer cell suspensions (0.05 ml/mouse) and then restored, the incisions were sutured, and the mice were placed in the cages and then put in the laminar flow rack.
# [8] = tested on: human liver cancer QGY cells; experiment: Human liver cancer QGY liver in-situ inoculation, survival; conditions: 100 mg/kg/d, ip × 2qod
# Source text: as §3
# Under sterile condition, the in vivo passage of the second generation of QGY tumor source of vigorous growth stage was prepared into cell suspensions of about 1-2×10^7/ml by homogenization (1:6), and the homogenates were filtered using 100-mesh stainless steel screen, getting ready for use. The nude mice were disinfected routinely and anaesthetized and cut at the xiphoid in the middle of the abdominal cavity to expose the liver, the cell suspensions (0.05 ml) were injected into liver parenchyma using imported 28 ga ½ ml syringes, the abdominal cavity was closed and then sutured layer by layer. The nude mice were fed in the laminar flow rack, with all the feed, packing, cage and contact instruments being sterilized under high pressure before use.
# [9] = tested on: human lung cancer A549 cells; experiment: Human lung cancer A549 (subcutaneous inoculation) metastasis model; conditions: 100 mg/kg/d, ip × 2qod
compound,measurement,setting,value
"CC(C)=CCC[C@@](C)(O)[C@H]1CC[C@]2(C)[C@@H]1[C@H](O)C[C@@H]1[C@@]3(C)CC[C@H](O[C@@H]4O[C@H](CO)[C@@H](O)[C@H](O)[C@H]4O[C@@H]4O[C@H](CO)[C@@H](O)[C@H](O)[C@H]4O)C(C)(C)[C@@H]3CC[C@]12C [20 (R)-ginsenoside Rg3, 20 (R)-Ginsenoside Rg3]",Solubility in low polarity or non-polar solvent,"[1]; petroleum ether, chloroform and other low polarity or non-polar solvent",not soluble
same,"Solubility in pyridine, ethanol solution, strong acid and strong alkaline solutions","[1]; pyridine, ethanol solution (50%˜70%), strong acid aqueous solutions (pH<2), strong alkaline solutions (pH>10)",easily soluble
same,Solubility in water and other high polarity solvents,[1]; water and other high polarity solvents,not soluble
CCCCCC(=O)OC[C@H]1O[C@@H](OC2CC[C@]3(C)C(CC[C@@]4(C)C3C[C@H](OC(=O)CCCCC)C3C([C@@](C)(O)CCC=C(C)C)CC[C@@]34C)C2(C)C)[C@H](OC2O[C@H](COC(=O)CCCCC)[C@@H](OC(=O)CCCCC)[C@H](OC(=O)CCCCC)[C@H]2OC(=O)CCCCC)[C@@H](OC(=O)CCCCC)[C@@H]1OC(=O)CCCCC (stereo partly drawn) [20(R)-Ginsenoside Rg3 octo-n-hexanoate],Solubility in ethanol,[2]; ethanol,soluble
same,Solubility in water,[2]; water,soluble
"O=P1(N(CCCl)CCCl)NCCCO1 (centres unmarked) [CTX, cyclophosphamide, reference compound]",Animal body weight (g) Start,mouse Lewis lung cancer [3],20.2 g
same,Animal body weight (g) end,mouse Lewis lung cancer [3],21.9 g
same,Tumor inhibition rate %,mouse Lewis lung cancer [3],93.92%
same,Tumor-bearing toe weight (g) X ± SD,mouse Lewis lung cancer [3],0.0541 ± 0.02 g
same,Animal body weight (g) Start,[4],20.4 g
same,Animal body weight (g) end,[4],22.0 g
same,Tumor inhibition rate %,[4],89.90%
same,Tumor weight (g) X ± SD,[4],0.130 ± 0.06 g
same,Animal body weight (g) Start,mouse melanoma B16 cells,20.1 g
same,Animal body weight (g) end,mouse melanoma B16 cells,21.4 g
same,Anti-metastasis rate %,mouse melanoma B16 cells,95.30%
same,Lung clone numbers (mice) X ± SD,mouse melanoma B16 cells,2.26 ± 2.8
same,Animal body weight (g) Start,mouse sarcoma S180 cells,20.2 g
same,Animal body weight (g) end,mouse sarcoma S180 cells,21.0 g
same,Anti-metastasis rate %,mouse sarcoma S180 cells,93.84%
same,Lung clone numbers (mice) X ± SD,mouse sarcoma S180 cells,0.18 ± 2.1
same,Animal body weight (g) Start,mouse Lewis lung cancer [5],19.4 g
same,Animal body weight (g) end,mouse Lewis lung cancer [5],21.0 g
same,Anti-metastasis rate %,mouse Lewis lung cancer [5],82.12%
same,Lung clone numbers (mice) X ± SD,mouse Lewis lung cancer [5],0.50 ± 0.09
same,Animal body weight (g) Start,[6],19.5 g
same,Animal body weight (g) end,[6],21.1 g
same,Average survival (d) X ± SD,[6],41.22 ± 3.5 days
same,Life extension rate T/C × %,[6],181.01%
same,Animal body weight (g) Start,[7],19.5 g
same,Animal body weight (g) end,[7],21.1 g
same,Average survival (d) X ± SD,[7],29.36 ± 3.3 days
same,Life extension rate T/C × %,[7],214.91%
same,Animal body weight (g) Start,[8],19.1 g
same,Animal body weight (g) end,[8],21.0 g
same,Average survival (d) X ± SD,[8],37.23 ± 3.4 days
same,Life extension rate T/C × %,[8],159.44%
same,Animal body weight (g) Start,[9],19.6 g
same,Animal body weight (g) end,[9],21.3 g
same,Anti-metastasis rate %,[9],85.10%
same,Lung clone numbers (mice) X ± SD,[9],0.29 ± 0.12
